Laboratory results: ChEMBL document CHEMBL1201862, “PubChem BioAssay data set” (2004)
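Five compound concentrations were applied to cells in 96-well plates for 48 hours; endpoints were derived by simple linear interpolation of the resulting dose-response curve. At the GI50, growth is halved.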 The source made the active and inactive calls. Cut-off read from the data, not from the text of the source: active = GI50 up to about 1.1 µM and inactive = higher.

Key:
Assay in all cases: NCI-60 cell line screen, 48 h
HOP-62 = test system: HOP-62
HCT-116 = test system: HCT-116
UACC-62 = test system: UACC-62
SF-539 = test system: SF-539
MDA-MB-435 = test system: MDA-MB-435
IGROV-1 = test system: IGROV-1
A549 = test system: A549
MDA-MB-231 = test system: MDA-MB-231
SK-MEL-5 = test system: SK-MEL-5
SF-268 = test system: SF-268
SF-295 = test system: SF-295
T47D = test system: T47D
Hs-578T = test system: Hs-578T
A498 = test system: A498
UO-31 = test system: UO-31
PC-3 = test system: PC-3
OVCAR-8 = test system: OVCAR-8
KM12 = test system: KM12
SNB-75 = test system: SNB-75
RXF 393 = test system: RXF 393

Measured: GI50

c1ccc2c3ccn4ccc5c6ccccc6[nH]c5c4c-3nc2c1
inactive: HOP-62 1.31 µM | UACC-62 1.77 µM | SF-539 1.55 µM | MDA-MB-435 1.45 µM | IGROV-1 1.25 µM | SK-MEL-5 1.46 µM | SF-268 1.24 µM | SF-295 1.46 µM | T47D 1.15 µM | Hs-578T 1.6 µM | A498 1.63 µM | UO-31 1.39 µM | PC-3 1.39 µM | SNB-75 1.57 µM | RXF 393 1.32 µM
active: HCT-116 0.306 µM | A549 0.745 µM | MDA-MB-231 0.329 µM | OVCAR-8 0.246 µM | KM12 0.908 µM

CC(=O)NC1COC(COC(=O)CCCCCCCCCCNC(=O)c2ccc([N+](=O)[O-])c3c(=O)c4ccccc4[nH]c23)C(O)C1OC(C)C(=O)NC(C(=O)NC(CCC(N)=O)C(=O)OCc1ccccc1)C(C)C (stereo not given)
inactive: HOP-62 7.45 µM | HCT-116 12.2 µM | UACC-62 25.2 µM | SF-539 20.8 µM | MDA-MB-435 36.8 µM | IGROV-1 6.38 µM | A549 25 µM | MDA-MB-231 38.8 µM | SK-MEL-5 29.6 µM | SF-268 7.36 µM | SF-295 22 µM | T47D 2.25 µM | Hs-578T 6.35 µM | A498 28.8 µM | UO-31 8.41 µM | PC-3 8.05 µM | OVCAR-8 12.6 µM | KM12 4.85 µM | SNB-75 14.4 µM | RXF 393 4.02 µM

Cc1c2ccc3ccccc3c2c[n+]2ccccc12
inactive: HOP-62 7.93 µM | HCT-116 17.1 µM | UACC-62 13.6 µM | SF-539 8.41 µM | MDA-MB-435 12.6 µM | IGROV-1 43.5 µM | A549 3.72 µM | MDA-MB-231 21.4 µM | SK-MEL-5 6.79 µM | SF-268 1.36 µM | SF-295 5.89 µM | T47D 1.36 µM | Hs-578T 2.26 µM | A498 > 47.5 µM | UO-31 17.5 µM | PC-3 26.7 µM | OVCAR-8 4.5 µM | KM12 1.13 µM | SNB-75 6.41 µM | RXF 393 22.3 µM

Cc1ccc(C(=O)CC(Cl)=C(Cl)Cl)cc1
inactive: HOP-62 > 100 µM | HCT-116 61.9 µM | UACC-62 > 100 µM | SF-539 > 100 µM | MDA-MB-435 55.7 µM | IGROV-1 > 100 µM | A549 > 100 µM | MDA-MB-231 98.2 µM | SK-MEL-5 > 100 µM | SF-268 > 100 µM | SF-295 25.6 µM | T47D 50.6 µM | Hs-578T > 100 µM | A498 > 100 µM | UO-31 > 100 µM | PC-3 > 100 µM | OVCAR-8 > 100 µM | KM12 > 100 µM | SNB-75 > 100 µM | RXF 393 78.5 µM

C=C(C)C(=O)O[C@@H]1C/C(C)=C\[C@H](OC(C)=O)C[C@](C)(O)/C=C2/OC(=O)C(COC(C)=O)=C21
inactive: HOP-62 5.66 µM | SF-539 1.28 µM | A549 2.95 µM | SF-295 6.76 µM | Hs-578T 2.15 µM | A498 3.34 µM | UO-31 1.63 µM | PC-3 1.61 µM | KM12 6.32 µM | SNB-75 3.93 µM
active: HCT-116 0.394 µM | UACC-62 0.692 µM | MDA-MB-435 0.845 µM | IGROV-1 0.834 µM | MDA-MB-231 0.662 µM | SK-MEL-5 1.09 µM | SF-268 0.668 µM | T47D 0.834 µM | OVCAR-8 0.69 µM | RXF 393 0.304 µM

O=C(CCN1CC2CCC(CC2)C1)c1cccs1
inactive: HOP-62 19.3 µM | HCT-116 19.1 µM | UACC-62 17.7 µM | SF-539 20.9 µM | MDA-MB-435 20.8 µM | IGROV-1 8.73 µM | A549 23.9 µM | MDA-MB-231 18.2 µM | SK-MEL-5 40.1 µM | SF-268 21.2 µM | SF-295 > 100 µM | T47D 6.92 µM | Hs-578T 27.3 µM | A498 > 87.7 µM | UO-31 8.77 µM | PC-3 16.7 µM | OVCAR-8 18.7 µM | KM12 19.9 µM | SNB-75 19.2 µM | RXF 393 19 µM

COC(=O)c1n[nH]c(C)c1/N=N/N(C)CCC#N
active: UO-31 0.301 µM
inactive: HOP-62 18.8 µM | HCT-116 16.4 µM | UACC-62 15.7 µM | SF-539 15.2 µM | MDA-MB-435 59.8 µM | IGROV-1 2.13 µM | A549 16.1 µM | MDA-MB-231 24.8 µM | SK-MEL-5 26.9 µM | SF-268 15.1 µM | SF-295 24.9 µM | T47D 14 µM | Hs-578T 20.8 µM | A498 76 µM | PC-3 20 µM | OVCAR-8 14.4 µM | KM12 14.8 µM | SNB-75 13.4 µM | RXF 393 13.3 µM

Cc1c(-c2ccccc2)c(C#N)c2nnn(C)c(=O)n12
inactive: HOP-62 44 µM | HCT-116 > 100 µM | UACC-62 > 100 µM | SF-539 > 100 µM | MDA-MB-435 > 100 µM | IGROV-1 > 100 µM | A549 > 100 µM | MDA-MB-231 > 100 µM | SK-MEL-5 > 100 µM | SF-268 > 100 µM | SF-295 68.9 µM | T47D > 100 µM | Hs-578T > 100 µM | A498 91.6 µM | UO-31 > 100 µM | PC-3 64.3 µM | OVCAR-8 > 100 µM | KM12 > 100 µM | SNB-75 42.8 µM | RXF 393 57.1 µM

C/C(=N\Nc1ncnc2ccccc12)c1ccccn1
inactive: SNB-75 1.81 µM
active: HOP-62 0.0355 µM | HCT-116 < 0.011 µM | UACC-62 0.0948 µM | SF-539 0.0279 µM | MDA-MB-435 0.195 µM | IGROV-1 < 0.0162 µM | A549 0.0316 µM | MDA-MB-231 < 0.0196 µM | SK-MEL-5 0.0237 µM | SF-268 < 0.0177 µM | SF-295 0.0803 µM | T47D < 0.0185 µM | Hs-578T 0.2 µM | A498 0.183 µM | UO-31 0.0516 µM | PC-3 < 0.0226 µM | OVCAR-8 < 0.01 µM | KM12 0.0561 µM | RXF 393 0.0371 µM

O=C1OCC/C1=C/c1ccc(/N=N/c2c(O)ccc3ccccc23)cc1
inactive: HOP-62 21.9 µM | HCT-116 17.6 µM | UACC-62 29.5 µM | SF-539 18.4 µM | MDA-MB-435 23.1 µM | IGROV-1 25.8 µM | A549 18.6 µM | MDA-MB-231 50.2 µM | SK-MEL-5 21.9 µM | SF-268 19.8 µM | SF-295 25.3 µM | T47D 39.4 µM | Hs-578T 27.2 µM | A498 15.1 µM | UO-31 19.1 µM | PC-3 19.9 µM | OVCAR-8 26.7 µM | KM12 5.11 µM | SNB-75 24.8 µM | RXF 393 19.3 µM

O=C(CSC1=NCCN1)c1ccccc1
inactive: HOP-62 > 100 µM | HCT-116 > 100 µM | UACC-62 > 100 µM | SF-539 > 100 µM | MDA-MB-435 > 100 µM | IGROV-1 > 100 µM | A549 > 100 µM | MDA-MB-231 > 100 µM | SK-MEL-5 > 100 µM | SF-268 > 100 µM | SF-295 > 100 µM | T47D > 100 µM | Hs-578T > 100 µM | A498 > 100 µM | UO-31 > 100 µM | PC-3 > 100 µM | OVCAR-8 > 100 µM | KM12 > 100 µM | SNB-75 > 100 µM | RXF 393 > 100 µM

CC(NC(=O)NC(C)(C)C)NC(=O)C(N)CC(=O)O (stereo not given)
inactive: HOP-62 > 100 µM | HCT-116 > 100 µM | UACC-62 14.4 µM | SF-539 > 100 µM | MDA-MB-435 > 100 µM | IGROV-1 > 100 µM | A549 > 100 µM | MDA-MB-231 > 100 µM | SK-MEL-5 > 100 µM | SF-268 > 100 µM | SF-295 > 100 µM | T47D > 100 µM | Hs-578T > 100 µM | A498 > 100 µM | UO-31 > 100 µM | PC-3 > 100 µM | OVCAR-8 > 100 µM | KM12 > 100 µM | SNB-75 > 100 µM | RXF 393 > 100 µM

CC(=O)OC(CCC1(C)OC1COc1ccc(CCNC(=O)C=C(C)C)cc1)C(C)(C)OC(C)=O (stereo not given)
inactive: HOP-62 20 µM | UACC-62 18.4 µM | SF-539 > 100 µM | MDA-MB-435 16.2 µM | IGROV-1 29.1 µM | A549 29.3 µM | MDA-MB-231 > 100 µM | SF-268 > 61.2 µM | T47D 16.6 µM | Hs-578T 59.3 µM | A498 > 100 µM | UO-31 48.9 µM | PC-3 29.9 µM | OVCAR-8 22.9 µM | KM12 17.8 µM | SNB-75 44.4 µM | RXF 393 13.5 µM
active: HCT-116 0.611 µM | SK-MEL-5 0.502 µM | SF-295 0.743 µM

Cc1c(C(=O)NNc2ccccc2)n2c(S)nnc2c2ccccc12
inactive: HOP-62 > 100 µM | HCT-116 > 100 µM | UACC-62 > 100 µM | SF-539 > 100 µM | MDA-MB-435 > 100 µM | IGROV-1 > 100 µM | A549 > 100 µM | MDA-MB-231 > 100 µM | SK-MEL-5 > 100 µM | SF-268 > 100 µM | SF-295 54.6 µM | T47D 40.5 µM | Hs-578T > 100 µM | A498 > 100 µM | UO-31 73.1 µM | PC-3 > 100 µM | OVCAR-8 > 100 µM | KM12 > 100 µM | SNB-75 > 100 µM | RXF 393 82.2 µM
